From ChEMBL document CHEMBL5338818, “Discovery of the First Potent, Selective, and In Vivo Efficacious Polo-like Kinase 4 Proteolysis Targeting Chimera Degrader for the Treatment of TRIM37-Amplified Breast Cancer” (J Med Chem, 2023)
Calls of active or inactive are those of the source. The rule behind the calls is not given here.

Legend:
[1] = test system: MCF7; assay: Antitumor activity against human MCF7 cells xenografted in nu/nu mouse assessed as induction of apoptosis at 20 mg/kg, ip measured once every other day for 21 days by TUNEL assay; format: functional, organism-based; conditions: time 21.0 day
[2] = test system: MCF7; assay: Antiproliferative activity against human MCF7 cells measured at 4 to 8 days interval by cell counting analysis; format: functional, cell-based; conditions: time 4-8 day
[3] = Observed volume of distribution at steady state in ICR mouse at 2 mg/kg, iv measured upto 24 hrs by LC-M/MS analysis; format: ADME, organism-based; conditions: in vivo, read-out: Vdss
[4] = Stability in human plasma assessed as compound remaining at 100 uM after 30 mins by LC-MS/MS analysis (reference value: 100%); format: ADME, cell-free; conditions: read-out: Stability
[5] = Cmax in ICR mouse at 20 mg/kg, ip measured upto 24 hrs by LC-M/MS analysis; format: ADME, organism-based; design: dose 20 mg/kg, time < 24 hrs, route ip; conditions: in vivo
[6] = Half life in ICR mouse at 2 mg/kg, iv measured upto 24 hrs by LC-M/MS analysis; format: ADME, organism-based; conditions: in vivo
[7] = Toxicity in nu/nu mouse xenografted with human MCF7 cells assessed as effect on liver at 20 mg/kg, ip administered once every other day for 21 days by HE staining based analysis; format: organism-based; conditions: in vivo, 504 h, time 21 day
[8] = Metabolic stability in rat liver microsomes assessed as intrinsic clearance at 100 uM incubated for 60 mins in presence of NADPH by LC-MS/MS analysis; format: ADME, Microsome; conditions: read-out: CLH
[9] = test system: MCF7; assay: Antiproliferative activity against human MCF7 cells incubated for 5 days by CCK-8 assay; conditions: MCF7, 120 h
[10] = Metabolic stability in human liver microsomes assessed as compound remaining at 100 uM incubated for 60 mins in presence of NADPH by LC-MS/MS analysis; format: ADME, Microsome; conditions: read-out: Stability
[11] = test system: MCF7; assay: Inhibition of human MCF7 cells migration incubated for 48 hrs by inverted microscopic analysis; format: functional, cell-based; conditions: dose 0.1-1 µM
[12] = Metabolic stability in rat liver microsomes assessed as half life at 100 uM incubated for 60 mins in presence of NADPH by LC-MS/MS analysis; format: ADME, Microsome
[13] = Observed clearance in ICR mouse at 2 mg/kg, iv measured upto 24 hrs by LC-M/MS analysis; format: ADME, organism-based; conditions: in vivo
[14] = test system: MCF7; assay: Antitumor activity against human MCF7 cells xenografted in nu/nu mouse assessed as tumor growth inhibition at 20 mg/kg, ip administered once every other day for 21 days; format: functional; conditions: MCF7, 504 h, time 21 day, read-out: TGI
[15] = Bioavailability in ICR mouse at […] measured upto 24 hrs by LC-M/MS analysis; format: ADME, organism-based; conditions: in vivo
[16] = molecular target: T1, Serine/threonine-protein kinase PLK4 (Homo sapiens, UniProt O00444); assay: Inhibition of PLK4 (unknown origin) incubated for 1 hr in presence of kinase tracer 236 by FRET assay
T1 sequence (O00444 whole entry): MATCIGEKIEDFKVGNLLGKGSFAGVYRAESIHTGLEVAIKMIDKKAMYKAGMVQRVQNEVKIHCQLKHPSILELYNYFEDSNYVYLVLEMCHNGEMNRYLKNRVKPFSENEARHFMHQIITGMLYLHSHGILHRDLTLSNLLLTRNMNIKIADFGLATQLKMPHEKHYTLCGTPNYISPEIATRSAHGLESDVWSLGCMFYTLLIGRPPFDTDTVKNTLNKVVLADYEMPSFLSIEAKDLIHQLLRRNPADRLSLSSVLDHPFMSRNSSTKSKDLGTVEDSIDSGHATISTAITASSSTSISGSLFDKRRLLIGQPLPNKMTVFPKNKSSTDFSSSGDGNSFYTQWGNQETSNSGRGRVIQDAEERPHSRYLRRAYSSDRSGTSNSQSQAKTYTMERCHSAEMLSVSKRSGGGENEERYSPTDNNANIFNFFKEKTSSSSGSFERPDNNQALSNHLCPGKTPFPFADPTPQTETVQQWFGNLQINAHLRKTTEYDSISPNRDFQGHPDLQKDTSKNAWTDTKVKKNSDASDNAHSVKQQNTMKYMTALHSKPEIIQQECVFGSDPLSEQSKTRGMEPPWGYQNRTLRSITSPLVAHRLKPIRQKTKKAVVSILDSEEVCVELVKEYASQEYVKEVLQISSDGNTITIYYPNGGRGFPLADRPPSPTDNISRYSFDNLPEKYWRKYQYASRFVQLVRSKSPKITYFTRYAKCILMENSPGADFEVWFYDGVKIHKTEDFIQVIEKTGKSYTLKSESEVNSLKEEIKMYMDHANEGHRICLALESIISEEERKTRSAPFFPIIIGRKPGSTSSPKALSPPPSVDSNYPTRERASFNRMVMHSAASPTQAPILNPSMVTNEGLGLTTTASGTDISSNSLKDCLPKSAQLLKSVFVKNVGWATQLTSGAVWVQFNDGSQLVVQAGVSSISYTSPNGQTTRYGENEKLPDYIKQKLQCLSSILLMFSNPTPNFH

[17] = molecular target: T2, Protein cereblon/Serine/threonine-protein kinase PLK4 (Homo sapiens, UniProt O00444+Q96SW2); assay: Protac activity at CRBN/PLK4 in human MCF7 cells at 1 uM in presence of BAF by Western blot analysis; format: cell-based
[18] = Stability in human plasma assessed as compound remaining at 100 uM after 10 mins by LC-MS/MS analysis (reference value: 100%); format: ADME, cell-free; conditions: read-out: Stability
[19] = Tmax in ICR mouse at 20 mg/kg, ip measured upto 24 hrs by LC-M/MS analysis; format: ADME, organism-based; conditions: in vivo
[20] = molecular target: T2, Protein cereblon/Serine/threonine-protein kinase PLK4; assay: Protac activity at CRBN/PLK4 in human MCF7 cells at 1 uM in presence of MG132 by Western blot analysis; format: cell-based
[21] = test system: MCF7; assay: Induction of cell cycle arrest at G2 phase in human MCF7 cells at 0.3 to 3 uM incubated for 36 hrs by Annexin V-FITC//propidium iodide staining based flow cytometry analysis; format: functional
[22] = Toxicity in nu/nu mouse xenografted with human MCF7 cells assessed as effect on kidney at 20 mg/kg, ip administered once every other day for 21 days by HE staining based analysis; format: organism-based; conditions: in vivo, 504 h, time 21 day
[23] = molecular target: CYP3A4 (Homo sapiens, UniProt P08684); assay: Inhibition of CYP3A4 in human liver microsomes at 10 uM using ketoconazole as substrate preincubated for 10 mins followed by NADPH regenerating system addition and measured after 15 mins by LC-MS/MS analysis relative to control; format: ADME, Microsome; conditions: time 25 min
[24] = Apparent permeability across basolateral to apical side in human Caco-2 cells at 2 uM incubated for 2 hrs by LC-MS/MS analysis; format: ADME, cell-based
[25] = Observed AUC infinity in ICR mouse at 2 mg/kg, iv measured upto 24 hrs by LC-M/MS analysis; format: ADME, organism-based; design: time < 24 hrs, dose 2 mg/kg, route iv; conditions: in vivo
[26] = test system: Mus musculus; assay: In vivo induction of PLK degradation in human MCF7 cells xenografted in nu/nu mouse at 20 mg/kg, ip administered once every other day for 21 days by western blotting analysis; format: functional, organism-based; conditions: time 21.0 day
[27] = AUClast in ICR mouse at 20 mg/kg, ip measured upto 24 hrs by LC-M/MS analysis; format: ADME, organism-based; design: dose 20 mg/kg, time < 24 hrs, route ip; conditions: in vivo
[28] = Half life in ICR mouse at 20 mg/kg, ip measured upto 24 hrs by LC-M/MS analysis; format: ADME, organism-based; conditions: in vivo

T2 sequence (Q96SW2 whole entry, looked up, one chain of several): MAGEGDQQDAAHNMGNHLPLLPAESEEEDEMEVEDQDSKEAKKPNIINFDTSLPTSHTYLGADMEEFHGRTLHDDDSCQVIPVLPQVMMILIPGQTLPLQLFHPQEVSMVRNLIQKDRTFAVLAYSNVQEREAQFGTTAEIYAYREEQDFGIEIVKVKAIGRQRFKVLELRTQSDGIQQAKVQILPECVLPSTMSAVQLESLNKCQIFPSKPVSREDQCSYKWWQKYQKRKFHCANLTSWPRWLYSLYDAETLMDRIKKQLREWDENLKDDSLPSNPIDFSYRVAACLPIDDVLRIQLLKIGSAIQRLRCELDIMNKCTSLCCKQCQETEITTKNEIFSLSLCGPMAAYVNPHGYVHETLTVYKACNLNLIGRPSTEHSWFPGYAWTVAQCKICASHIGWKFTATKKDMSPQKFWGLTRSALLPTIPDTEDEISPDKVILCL
Sequence of CYP3A4 (P08684 whole entry): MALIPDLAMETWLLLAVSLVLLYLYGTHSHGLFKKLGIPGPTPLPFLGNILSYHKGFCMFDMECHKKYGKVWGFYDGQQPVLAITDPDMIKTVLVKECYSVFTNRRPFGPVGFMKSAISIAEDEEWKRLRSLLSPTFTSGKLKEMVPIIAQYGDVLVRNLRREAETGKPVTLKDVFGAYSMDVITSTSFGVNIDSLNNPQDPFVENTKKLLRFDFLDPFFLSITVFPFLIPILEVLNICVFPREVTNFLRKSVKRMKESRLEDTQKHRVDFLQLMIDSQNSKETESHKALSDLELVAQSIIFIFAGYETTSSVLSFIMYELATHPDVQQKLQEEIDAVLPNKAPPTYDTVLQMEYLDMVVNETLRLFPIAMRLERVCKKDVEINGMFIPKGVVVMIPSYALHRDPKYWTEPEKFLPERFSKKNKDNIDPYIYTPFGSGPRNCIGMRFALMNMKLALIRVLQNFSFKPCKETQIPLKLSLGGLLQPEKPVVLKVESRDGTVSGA

For `Cc1cc(Nc2nc(NCc3ccc(F)cc3F)nc3c2cnn3C2CCN(C(=O)C3CCN(c4ccc5c(c4)C(=O)N(C4CCC(=O)NC4=O)C5=O)CC3)CC2)n[nH]1` (stereo not drawn), the inhibition [1] was “Active”, the Activity [2] was “Active” and the Vd [3] was 16.3 L/kg. It also gave a remaining at 0.5 h, 100 µM [4] of 96.6%, a Cmax [5] of 4570 ng/mL and a half-life [6] of 5.34 h. For the same compound, the Activity [7] was “Non-Toxic”, the microsomal CLint at 100 µM [8] was 20.9 µL/min/mg and the IC50 [9] was 73 nM. The remaining at 1 h, 100 µM [10] was 51.7%, the inhibition [11] was “Dose-Dependent Effect” and the half-life at 100 µM [12] was 1.11 h. It also gave a clearance [13] of 34.9 mL/min/kg, an inhibition in vivo at 20 mg/kg [14] of 73.7% and a bioavailability [15] of 149%. The IC50 [16] was 8.4 nM, the Activity [17] was “inactive” and the remaining at 10 min, 100 µM [18] was 93.9%. The Tmax [19] was 1.42 h, the Activity [20] was “Active” and the Activity [21] was “Dose-Dependent Effect”. The Activity [22] was “Non-Toxic”, the inhibition at 0.25 h, 10 µM [23] was 20.4% and the Papp B→A at 2 h, 2 µM [24] was 0.97 ×10⁻⁶ cm/s. The AUC(0-inf) [25] was 956 ng·h/mL, the inhibition [26] was “Active” and the AUC(0-t) at 24 h [27] was 14000 ng·h/mL. The half-life [28] was 4.66 h.
